From patent publication US20220324835A1 (Nurix Therapeutics, Inc., priority 2018, published 2022)

Test system: T-cells
Assay: In vivo activity: CD25 expression on CD4+ or CD8+ T-cells of mice stimulated with anti-CD3 antibody
Details: 2 μg anti-CD3 antibody, 24 hours
In short: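 C57BL/6 or BALB/c mice dosed with inhibitor (IV, IP, SC or PO, e.g. BID or TID), then stimulated with 2 μg anti-CD3 antibody. Plasma IL-2, IFNγ, TNFα at 8 h and CD25 on CD4+/CD8+ T-cells by flow cytometry at 24 h; fold change over vehicle plus anti-CD3, binned A–E.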

SMILES | CD4+ T-cell % CD25+ (90 mpk IP BID) | CD8+ T-cell % CD25+ (90 mpk IP BID) | CD4+ T-cell % CD25+ (90 mpk PO BID) | CD8+ T-cell % CD25+ (90 mpk PO BID) | CD4+ T-cell % CD25+ (135 mpk PO BID) | CD8+ T-cell % CD25+ (135 mpk PO BID) | CD4+ T-cell % CD25+ (180 mpk PO BID) | CD8+ T-cell % CD25+ (180 mpk PO BID)
C[C@H](Cc1nncn1C)c1cccc(NC(=O)c2ccnc(C(F)(F)F)n2)c1 [Compound 187, (R)-N-(3-(1-(4-methyl-4H-1,2,4-triazol-3-yl)propan-2-yl)phenyl)-2-(trifluoromethyl)pyrimidine-4-carboxamide] | C (C indicates 1.51-2.00) | D (D indicates 1.00-1.50) |  |  |  |  |  | 
Cn1cnnc1[C@@H]1C[C@@H]1c1cccc(N2Cc3c(cccc3C(F)(F)F)C2=O)c1 [Compound 282, 2-(3-((1S,2R)-2-(4-methyl-4H-1,2,4-triazol-3-yl)cyclopropyl)phenyl)-4-(trifluoromethyl)isoindolin-1-one] |  |  | D (D indicates 1.00-1.50) | D (D indicates 1.00-1.50) | C (C indicates 1.51-2.00) | D (D indicates 1.00-1.50) | B (B indicates 2.01-2.50) | D (D indicates 1.00-1.50)
